The supplement of paper PMC5908809

Assays:
[1] = tested on: normal NK cells expanded with K562-aAPC; test: percent inhibition of viability; higher = more inhibition; conditions: 72 h, IL-2 2.5 ng/mL
Method: (§1)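 Drug sensitivity and resistance testing on K562-aAPC-expanded normal NK cells: 5 concentrations (10-fold steps over a 10,000-fold range), 72 h at 37 °C, viability by CellTiter-Glo normalised to DMSO and benzethonium chloride controls; DSS from the fitted curve.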

[2] = tested on: DERL-7 (IL-2 2.5 ng/mL); test: as above; conditions: 72 h
[3] = tested on: IMC-1 (IL-2 20 ng/mL); test: as above; conditions: 72 h
[4] = tested on: KAI3 (IL-2 2.5 ng/mL); test: as above; conditions: 72 h
[5] = tested on: KHYG-1 (IL-2 2.5 ng/mL); test: as above; conditions: 72 h
[6] = tested on: NK-92 (IL-2 2.5 ng/mL); test: as above; conditions: 72 h
[7] = tested on: NK-YS (IL-2 2.5 ng/mL); test: as above; conditions: 72 h
[8] = tested on: NKL (IL-2 2.5 ng/mL); test: as above; conditions: 72 h
[9] = tested on: SNK-6 (IL-2 2.5 ng/mL); test: as above; conditions: 72 h
[10] = tested on: YT (IL-2 2.5 ng/mL); test: as above; conditions: 72 h
[11] = tested on: normal primary NK cells, pool 1 (3 donors) (IL-2 2.5 ng/mL); test: as above; conditions: 72 h
[12] = tested on: normal primary NK cells, pool 1 (3 donors), resting (IL-2 0 ng/mL); test: as above; conditions: 72 h
[13] = tested on: normal primary NK cells, pool 2 (3 donors) (IL-2 2.5 ng/mL); test: as above; conditions: 72 h
[14] = tested on: normal primary NK cells, pool 3 (3 donors) (IL-2 2.5 ng/mL); test: as above; conditions: 72 h
[15] = tested on: normal NK cells expanded with K562-aAPC; test: drug sensitivity score (DSS) (DSS units); higher = more sensitive; extreme values may be limits of the assay; conditions: 72 h; IL-2 2.5 ng/mL
Method: as §1

[16] = tested on: DERL-7 (IL-2 2.5 ng/mL); test: as above; conditions: 72 h
[17] = tested on: IMC-1 (IL-2 20 ng/mL); test: as above; conditions: 72 h
[18] = tested on: KAI3 (IL-2 2.5 ng/mL); test: as above; conditions: 72 h
[19] = tested on: KHYG-1 (IL-2 2.5 ng/mL); test: as above; conditions: 72 h
[20] = tested on: NK-92 (IL-2 2.5 ng/mL); test: as above; conditions: 72 h
[21] = tested on: NK-YS (IL-2 2.5 ng/mL); test: as above; conditions: 72 h
[22] = tested on: NKL (IL-2 2.5 ng/mL); test: as above; conditions: 72 h
[23] = tested on: SNK-6 (IL-2 2.5 ng/mL); test: as above; conditions: 72 h
[24] = tested on: YT (IL-2 2.5 ng/mL); test: as above; conditions: 72 h
[25] = tested on: normal primary NK cells, pool 1 (3 donors) (IL-2 2.5 ng/mL); test: as above; conditions: 72 h
[26] = tested on: normal primary NK cells, pool 1 (3 donors), resting (IL-2 0 ng/mL); test: as above; conditions: 72 h
[27] = tested on: normal primary NK cells, pool 2 (3 donors) (IL-2 2.5 ng/mL); test: as above; conditions: 72 h
[28] = tested on: normal primary NK cells, pool 3 (3 donors) (IL-2 2.5 ng/mL); test: as above; conditions: 72 h

COc1c(C)cnc(Cn2cnc3c(Cl)nc(N)nc32)c1C [BIIB021] (max concentration tested 10000 nM)
percent inhibition of viability [%]
Conditions | 1 nM | 10 nM | 100 nM | 1000 nM | 10000 nM
[1] | -1.27 | -2.67 | 62.1 | 98.6 | 100
[2] | 2.38 | 6.56 | 62.9 | 99.9 | 101
[3] | 1.18 | -3.95 | 26.6 | 99.6 | 101
[4] | -2.5 | 4.1 | 75.8 | 98.8 | 102
[5] | -2.8 | -2.89 | 77.1 | 99.3 | 104
[6] | -8.24 | -13.2 | 51.8 | 95.9 | 101
[7] | 0.34 | 0.63 | 61.5 | 97.2 | 102
[8] | -6.72 | -10.3 | 45.6 | 85.8 | 86.2
[9] | 19 | -3.8 | 92.6 | 91 | 90.3
[10] | -3.19 | -0.41 | 48.3 | 90.5 | 94.5
[11] | -3.67 | 7.97 | 27.8 | 79 | 88
[12] | 15.4 | 12.6 | 10.4 | 36.1 | 51
[13] | -9.44 | -10.5 | 39.7 | 81.5 | 83.5
[14] | -13.8 | -15 | 16.2 | 78.9 | 87.8

Conditions | drug sensitivity score
[15] | 25.3
[16] | 25.7
[17] | 22
[18] | 27.3
[19] | 26.8
[20] | 24.4
[21] | 25.3
[22] | 21.3
[23] | 28
[24] | 22.8
[25] | 17.8
[26] | 8.4
[27] | 20.3
[28] | 16.6

O=C(Nc1cccc(Nc2ncc(Br)c(NCCc3cnc[nH]3)n2)c1)N1CCCC1 [BX-912] (max concentration tested 10000 nM)
percent inhibition of viability [%]
Conditions | 1 nM | 10 nM | 100 nM | 1000 nM | 10000 nM
[1] | 6.59 | 2.98 | 3.43 | 27.4 | 91.5
[2] | 2.87 | -0.14 | -7.54 | 46.5 | 100
[3] | -2.34 | -6.68 | 1.1 | 67.4 | 100
[4] | 4.7 | 2.59 | 15.4 | 62.1 | 91.9
[5] | 2.7 | 1.66 | 7.53 | 73.7 | 99.5
[6] | -9.43 | -1.33 | -2.11 | 29.9 | 73.8
[7] | -1.46 | -2.48 | 3.48 | 12.5 | 71
[8] | -14.9 | -11.4 | 13.4 | 37.6 | 82.2
[9] | -3.93 | -10.2 | -7.12 | 74.4 | 84.7
[10] | 5.65 | 4 | 10.3 | 27.9 | 94
[11] | -2.38 | 3.58 | -5.48 | 24.1 | 67.8
[12] | -5.56 | -0.72 | -0.67 | -4.14 | 48.2
[13] | -15 | -8.59 | -3.23 | 28.3 | 70.2
[14] | -2.12 | 3.72 | -4.74 | 17.4 | 59.6

Conditions | drug sensitivity score
[15] | 9.08
[16] | 11.4
[17] | 13.3
[18] | 13.7
[19] | 14.9
[20] | 8.1
[21] | 5.99
[22] | 9.05
[23] | 13.4
[24] | 8.82
[25] | 7.12
[26] | 2.21
[27] | 7.7
[28] | 5.85
